Like-named read-outs stand apart in the source and are kept apart here. Starred links: 1 amine or outer side, 2 acyl side, 3 side chain; linkers in the order of their positions; H or OH if unused. Positions of bridges follow the written chain, without caps; N, C: chain ends. Non-standard residues stand in square brackets, D forms with d. Residues, ends and D or L forms follow the SMILES beside them. ξ: configuration not given here. Phe(3-Me) = Cc1cccc(C[C@H](N)C(=O)O)c1; γGlu = O=C(O)[C@H](CCC(=O)[*:2])N[*:1]; 2Nal = N[C@@H](Cc1ccc2ccccc2c1)C(=O)O; βAsp = O=C(O)[C@H](CC(=O)[*:2])N[*:1]; Gly(cPent) = N[C@H](C(=O)O)C1CCCC1; NMeThr(3ξ) = CN[C@H](C(=O)O)C(C)O; Tic = O=C(O)[C@@H]1Cc2ccccc2CN1; Aad = N[C@@H](CCCC(=O)O)C(=O)O; Cit = NC(=O)NCCC[C@H](N)C(=O)O; Ahp(2) = CCCCC[C@H](N)C(=O)O; NMeNle = CCCC[C@H](NC)C(=O)O; Tle = CC(C)(C)[C@H](N)C(=O)O; NHexGly = CCCCCCNCC(=O)O; Nle = CCCC[C@H](N)C(=O)O; Orn = NCCC[C@H](N)C(=O)O; Aun = NCCCCCCCCCCC(=O)O; AEEA = NCCOCCOCC(=O)O; NBuGly = CCCCNCC(=O)O; ξS = NC(CO)C(=O)O
Molecular target: T1, mouse VISTA (mVISTA) (Mus musculus, UniProt Q9D659)
T1 construct: expressed in transfected cells; host or cells: Human embryonic kidney 293T cells
T1 sequence (Q9D659 33-308): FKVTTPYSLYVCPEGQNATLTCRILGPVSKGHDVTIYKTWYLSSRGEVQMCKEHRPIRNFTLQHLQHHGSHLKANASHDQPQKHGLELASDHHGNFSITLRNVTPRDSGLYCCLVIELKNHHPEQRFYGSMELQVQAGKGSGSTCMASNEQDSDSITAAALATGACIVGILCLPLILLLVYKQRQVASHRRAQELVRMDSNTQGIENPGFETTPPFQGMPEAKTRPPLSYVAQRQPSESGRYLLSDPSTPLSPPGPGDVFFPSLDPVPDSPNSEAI
Assay: Cell-Based Binding High-Content Assay For mVISTA (HC CBA mVISTA)
Procedure, shortened: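 293T cells expressing mouse VISTA, with compounds added either after seeding ("no wash") or before seeding and then washed out after 1 h. Biotinylated peptide 2 nM for 30 min at room temperature, then detection with Alexa 647–streptavidin. After fixation with Hoechst stain, plates were high-content imaged; IC50 from four-parameter logistic fit.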

[1] = cell-based binding high-content assay, mVISTA, the 16th table, read-out: HC CBA mVISTA IC50
[2] = cell-based binding high-content assay, mVISTA, read-out: HC CBA miPr ISTA IC50

## CCCCCCN1CC(=O)N[C@@H](Cc2ccc(O)cc2)C(=O)N[C@@H](CC(C)C)C(=O)NCC(=O)N[C@@H](CCCNC(=N)N)C(=O)N[C@@H](CC(C)C)C(=O)N[C@@H](CCCCC)C(=O)N2CCC[C@H]2C(=O)N[C@@H](C(C)C)C(=O)N[C@@H](CC(=O)O)C(=O)N[C@H](C(=O)NCC(=O)O)CSCC(=O)N[C@@H](Cc2ccc3ccccc3c2)C(=O)N[C@@H](Cc2ccc(O)cc2)C(=O)N[C@@H](CC(=O)O)C1=O [Ex 1282] ({CH2CO}-[2Nal]YD[NHexGly]YLGRL[Ahp(2)]PVDCG-OH; thioether N-14)
[1]
  IC50: 11.7 nM

## CCCCCCN1CC(=O)N[C@@H](Cc2ccc(O)cc2)C(=O)N[C@@H](CCCC)C(=O)N[C@@H](CC(N)=O)C(=O)N[C@@H](CCCNC(=N)N)C(=O)N[C@@H](CC(C)C)C(=O)N[C@@H](C2CCCC2)C(=O)N2CCC[C@H]2C(=O)N[C@@H](C(C)C)C(=O)N[C@@H](CC(=O)O)C(=O)N[C@H](C(=O)NCC(=O)O)CSCC(=O)N[C@@H](Cc2ccc3ccccc3c2)C(=O)N[C@@H](Cc2c[nH]c3ccccc23)C(=O)N[C@@H](CC(=O)O)C1=O [compound 1181] ({CH2CO}-[2Nal]WD[NHexGly]Y[Nle]NRL[Gly(cPent)]PVDCG-OH; thioether N-14)
read-out: HC CBA mVISTA IC50
  IC50: 15.9 nM

## CCCCCCN1CC(=O)N[C@@H](Cc2ccc(O)cc2)C(=O)N[C@@H](CCCC)C(=O)N[C@@H](CC(N)=O)C(=O)N[C@@H](CCCNC(=N)N)C(=O)N(C)[C@@H](CCCC)C(=O)N[C@@H](CCCCC)C(=O)N2CCC[C@H]2C(=O)N[C@@H](C(C)(C)C)C(=O)N[C@@H](CO)C(=O)N[C@H](C(=O)NCCOCCOCC(=O)N[C@@H](CCC(=O)NCCOCCOCC(=O)NCCCCCCCCCCC(=O)O)C(=O)O)CSCC(=O)N[C@@H](Cc2ccc(O)cc2)C(=O)N[C@@H](Cc2ccc(O)cc2)C(=O)N[C@@H](CC(=O)O)C1=O [compound 2252] ({CH2CO}-YYD[NHexGly]Y[Nle]NR[NMeNle][Ahp(2)]P[Tle]SC[AEEA][γGlu][AEEA][Aun]-OH; thioether N-14)
read-out: HC CBA mVISTA IC50
  IC50: 12 nM

## CCCCCCN1CC(=O)N[C@@H](Cc2ccc(O)cc2)C(=O)N[C@@H](CCCC)C(=O)N[C@@H](CC(=O)O)C(=O)N[C@@H](CCCNC(=N)N)C(=O)N(C)[C@@H](CCCC)C(=O)N[C@@H](CCCCC)C(=O)N2CCC[C@H]2C(=O)N[C@@H](C(C)C)C(=O)N[C@@H](CC(=O)O)C(=O)N[C@H](C(=O)NC(CO)C(N)=O)CSCC(=O)N[C@@H](Cc2ccccc2)C(=O)N[C@@H](Cc2cccc(C)c2)C(=O)N[C@@H](CC(=O)O)C1=O (some centres unmarked) [compound 1347] ({CH2CO}-F[Phe(3-Me)]D[NHexGly]Y[Nle]DR[NMeNle][Ahp(2)]PVDC[ξS]-NH2; thioether N-14)
read-out: HC CBA mVISTA IC50
  IC50: 10.6 nM

## CCCCCCN1CC(=O)N[C@@H](Cc2ccc(O)cc2)C(=O)N[C@@H](CC(C)C)C(=O)NCC(=O)N[C@@H](CCCNC(=N)N)C(=O)N[C@@H](CC(C)C)C(=O)N[C@@H](CCCCC)C(=O)N2CCC[C@H]2C(=O)N[C@@H](C(C)C)C(=O)N[C@@H](CO)C(=O)N[C@H](C(=O)NCC(N)=O)CSCC(=O)N[C@@H](Cc2ccccc2)C(=O)N[C@@H](Cc2c[nH]c3ccccc23)C(=O)N[C@@H](CC(=O)O)C1=O [Example 1358] ({CH2CO}-FWD[NHexGly]YLGRL[Ahp(2)]PVSCG-NH2; thioether N-14)
read-out: HC CBA mVISTA IC50
  IC50: 19.5 nM

## CCCCCCN1CC(=O)N[C@@H](Cc2ccc(O)cc2)C(=O)N[C@@H](CC(C)C)C(=O)N[C@@H](CC(N)=O)C(=O)N[C@@H](CCCNC(=N)N)C(=O)N[C@@H](CC(C)C)C(=O)N[C@@H](CCCCC)C(=O)N2CCC[C@H]2C(=O)N[C@@H](C(C)C)C(=O)N[C@@H](CO)C(=O)N[C@H](C(=O)N[C@@H](CC(=O)NCCOCCOCC(=O)N[C@@H](CC(=O)O)C(=O)NCCOCCOCC(=O)NCCCCCCCCCCC(=O)O)C(=O)O)CSCC(=O)N[C@@H](Cc2ccccc2)C(=O)N[C@@H](Cc2ccc(O)cc2)C(=O)N[C@@H](CC(=O)O)C1=O [compound 2003] ({CH2CO}-FYD[NHexGly]YLNRL[Ahp(2)]PVSC[βAsp][AEEA]D[AEEA][Aun]-OH; thioether N-14)
[2]
  IC50: 37.8 nM

## CCCCCCN1CC(=O)N[C@@H](Cc2ccc(O)cc2)C(=O)N[C@@H](CCCC)C(=O)N[C@@H](CC(=O)O)C(=O)N[C@@H](CCCNC(=N)N)C(=O)N(C)[C@@H](CCCC)C(=O)N[C@@H](CCCCC)C(=O)N2CCC[C@H]2C(=O)N[C@@H](C(C)C)C(=O)N[C@@H](CC(=O)O)C(=O)N[C@H](C(=O)N[C@@H](CO)C(N)=O)CSCC(=O)N[C@@H](Cc2ccc3ccccc3c2)C(=O)N[C@@H](Cc2ccc(O)cc2)C(=O)N[C@@H](CC(=O)O)C1=O [Ex 1318] ({CH2CO}-[2Nal]YD[NHexGly]Y[Nle]DR[NMeNle][Ahp(2)]PVDCS-NH2; thioether N-14)
[1]
  IC50: 11.9 nM

## CCCCC[C@@H]1NC(=O)[C@H](CC(C)C)NC(=O)[C@H](CCCNC(=N)N)NC(=O)[C@H](CC(N)=O)NC(=O)[C@H](CCCC)NC(=O)[C@H](Cc2ccc(O)cc2)NC(=O)CN(CCCC)C(=O)[C@H](CC(=O)O)NC(=O)[C@H](Cc2ccc(O)cc2)NC(=O)[C@H](Cc2ccc3ccccc3c2)NC(=O)CSC[C@@H](C(=O)NCC(=O)O)NC(=O)[C@H](CC(=O)O)NC(=O)[C@H](C(C)C)NC(=O)[C@@H]2CCCN2C1=O [Ex 1270] ({CH2CO}-[2Nal]YD[NBuGly]Y[Nle]NRL[Ahp(2)]PVDCG-OH; thioether N-14)
[1]
  IC50: 2.4 nM

## CCCCCCN1CC(=O)N[C@@H](Cc2ccc(O)cc2)C(=O)N[C@@H](CCCC)C(=O)N[C@@H](CC(N)=O)C(=O)N[C@@H](CCCNC(=N)N)C(=O)N(C)[C@@H](CCCC)C(=O)N[C@@H](CCCCC)C(=O)N2CCC[C@H]2C(=O)N[C@@H](C(C)C)C(=O)N[C@@H](CC(=O)O)C(=O)N[C@H](C(=O)N[C@@H](CCCN)C(=O)N[C@@H](CCC(N)=O)C(=O)O)CSCC(=O)N[C@@H](Cc2ccccc2)C(=O)N[C@@H](Cc2c[nH]c3ccccc23)C(=O)N[C@@H](CC(=O)O)C1=O [compound 1130] ({CH2CO}-FWD[NHexGly]Y[Nle]NR[NMeNle][Ahp(2)]PVDC[Orn]Q-OH; thioether N-14)
read-out: HC CBA mVISTA IC50
  IC50: 17.5 nM

## CCCCCCN1CC(=O)N[C@@H](Cc2ccc(O)cc2)C(=O)N[C@@H](CCCC)C(=O)N[C@@H](CC(N)=O)C(=O)N[C@@H](CCCNC(N)=O)C(=O)N2Cc3ccccc3C[C@H]2C(=O)N[C@@H](CCCCC)C(=O)N2CCC[C@H]2C(=O)N[C@@H](C(C)C)C(=O)N[C@@H](CO)C(=O)N[C@H](C(=O)NCCOCCOCC(=O)N[C@@H](CC(=O)O)C(=O)NCCOCCOCC(=O)NCCCCCCCCCCC(=O)O)CSCC(=O)N[C@@H](Cc2ccc3ccccc3c2)C(=O)N[C@@H](Cc2ccc(O)cc2)C(=O)N[C@@H](CC(=O)O)C1=O [compound 2315] ({CH2CO}-[2Nal]YD[NHexGly]Y[Nle]N[Cit][Tic][Ahp(2)]PVSC[AEEA]D[AEEA][Aun]-OH; thioether N-14)
cell-based binding high-content assay, read-out: HC CBA miPrISTA IC50
  IC50: 18.3 nM

## CCCCCCN1CC(=O)N[C@@H](Cc2ccc(O)cc2)C(=O)N[C@@H](CCCC(=O)O)C(=O)N[C@@H](CC(N)=O)C(=O)N[C@@H](CCCNC(=N)N)C(=O)N(C)[C@@H](CCCC)C(=O)N[C@@H](CCCCC)C(=O)N2CCC[C@H]2C(=O)N[C@@H](C(C)(C)C)C(=O)N[C@@H](CC(=O)O)C(=O)N[C@H](C(N)=O)CSCC(=O)N[C@@H](Cc2ccccc2)C(=O)N[C@@H](Cc2c[nH]c3ccccc23)C(=O)N[C@@H](CC(=O)O)C1=O [compound 1169] ({CH2CO}-FWD[NHexGly]Y[Aad]NR[NMeNle][Ahp(2)]P[Tle]DC-NH2; thioether N-14)
read-out: HC CBA mVISTA IC50
  IC50: 38.4 nM

## CCCCCCN1CC(=O)N[C@@H](Cc2ccc(O)cc2)C(=O)N[C@@H](CC(C)C)C(=O)N[C@@H](CC(N)=O)C(=O)N[C@@H](CCCNC(=N)N)C(=O)N(C)[C@@H](C(C)O)C(=O)N[C@@H](CCCCC)C(=O)N2CCC[C@H]2C(=O)N[C@@H](C(C)(C)C)C(=O)N[C@@H](CC(=O)O)C(=O)N[C@H](C(=O)N[C@@H](CC(=O)NCCOCCOCC(=O)N[C@@H](CC(=O)O)C(=O)NCCOCCOCC(=O)NCCCCCCCCCCC(=O)O)C(=O)O)CSCC(=O)N[C@@H](Cc2ccccc2)C(=O)N[C@@H](Cc2c[nH]c3ccccc23)C(=O)N[C@@H](CC(=O)O)C1=O (some centres unmarked) [compound 2042] ({CH2CO}-FWD[NHexGly]YLNR[NMeThr(3ξ)][Ahp(2)]P[Tle]DC[βAsp][AEEA]D[AEEA][Aun]-OH; thioether N-14)
[2]
  IC50: 30.8 nM

## CCCCCCN1CC(=O)N[C@@H](Cc2ccc(O)cc2)C(=O)N[C@@H](CCCC)C(=O)N[C@@H](CC(=O)O)C(=O)N[C@@H](CCCNC(=N)N)C(=O)N[C@@H](CC(C)C)C(=O)N[C@@H](CCCCC)C(=O)N2CCC[C@H]2C(=O)N[C@@H](C(C)C)C(=O)N[C@@H](CC(=O)O)C(=O)N[C@H](C(=O)N[C@@H](CO)C(N)=O)CSCC(=O)N[C@@H](Cc2ccc3ccccc3c2)C(=O)N[C@@H](Cc2c[nH]c3ccccc23)C(=O)N[C@@H](CC(=O)O)C1=O [compound 1235] ({CH2CO}-[2Nal]WD[NHexGly]Y[Nle]DRL[Ahp(2)]PVDCS-NH2; thioether N-14)
cell-based binding high-content assay, mVISTA, the 15th table, read-out: HC CBA mVISTA IC50
  IC50: 13.4 nM

## CCCCCCN1CC(=O)N[C@@H](Cc2ccc(O)cc2)C(=O)N[C@@H](CCCC)C(=O)N[C@@H](CC(N)=O)C(=O)N[C@@H](CCCNC(=N)N)C(=O)N(C)[C@@H](CCCC)C(=O)N[C@@H](CCCCC)C(=O)N2CCC[C@H]2C(=O)N[C@@H](C(C)C)C(=O)N[C@@H](CC(=O)O)C(=O)N[C@H](C(=O)NCC(=O)O)CSCC(=O)N[C@@H](Cc2cccc(C)c2)C(=O)N[C@@H](Cc2ccc(O)cc2)C(=O)N[C@@H](CC(=O)O)C1=O [compound 1450] ({CH2CO}-[Phe(3-Me)]YD[NHexGly]Y[Nle]NR[NMeNle][Ahp(2)]PVDCG-OH; thioether N-14)
The 19th table, scaffold drawing 22, read-out: HC CBA mVISTA IC50
  IC50: 7 nM

Source: patent US20240218022A1, “ANTI-VISTA MACROCYCLIC PEPTIDES AND COMPOSITIONS” (BRISTOL-MYERS SQUIBB COMPANY, priority 2022, published 2024)
